Test results published in publication PMC10097024, “Cytotoxic and Antibacterial Prenylated Acylphloroglucinols from Hypericum olympicum L” (Plants, 2023).
pIC50: −log10 of the molar value.

Assays:
K-562 cells = settings: human leukemia cell line K-562, dissolved in DMSO; cited from earlier work
SKW-3 = system: SKW-3; set-up: method as in PMID 26411018; settings: human leukemia cell line SKW-3, dissolved in DMSO; cited from earlier work
BV-173 = system: BV-173; set-up: method as in PMID 26411018; settings: human leukemia cell line BV-173, dissolved in DMSO; cited from earlier work
procaspase 9 = test: Western blot, procaspase 9; type: cell-based, human; settings: MDA-MB-231 and HL60/DOX
Description: Next, the samples were lysed on ice with a buffer containing 100 mM Tris–HCl at pH 8.0, 4% SDS, 20% glycerol, 1% Na3VO4, 200 mM dithiothreitol (DTT) (Sigma-Aldrich, St. Louis, MO, USA) and protease inhibitor (Roche, Basel, Switzerland). Then the cell lysate was boiled for 15 min and centrifuged at 13,000 rpm for 10 min at 4 °C. Before DTT addition, aliquot samples of 10 μL were taken from the lysates. Their protein concentrations were determined using a BCA protein assay kit (ThermoFisher Scientific, Waltham, MA, USA) after dilution 5× with H2O. Subsequently, the samples were subjected to denaturing SDS-PAGE electrophoresis and then transferred to PVDF membrane (Santa Cruz Biotechnology, USA). After this, the blots were fixed with blocking solution (5% w/v nonfat dried milk powder, dissolved in TBS) and incubated with specific primary antibodies: mouse procaspase-9 (sc-17784), mouse Bcl-2 (C-2, sc-7382) and mouse β-actin (sc-8432). The incubation was either overnight at 4 °C or for 150 min at room temperature. After washing, the membranes were incubated for 45 min with horseradish peroxidase conjugated secondary goat anti-mouse antibody (sc-2005) or mouse IgG kappa antibody (sc-516102) (Santa Cruz Biotechnology, Santa Cruz, CA, USA). […] This densitometry analysis of the blots was calculated by Quantity One software version 4.6.9 (Bio-Rad Laboratories, Hercules, CA, USA). […]

SMILES	pIC50 (K-562 cells)	pIC50 (SKW-3)	pIC50 (BV-173)	degradation of the precursor caspase 9 (in words) (procaspase 9)
CC(C)=CCC[C@]1(C)[C@@H](CC=C(C)C)C[C@]2(C)C(=O)C(CC=C(C)C)=C(O)[C@@]1(C(=O)C(C)C)C2=O [Compound 3, hyperpolyphyllirin/hyperibine J]	4.67	5.28	5.24	–
CC(C)=CCC[C@]1(C)[C@@H](CC=C(C)C)C[C@H]2C(=O)[C@]1(C(=O)C(C)C)C(=O)C(CC=C(C)C)=C2O [Compound 5, (1S,5R,7S,8R)-4-hydroxy-1-isobutyryl-8-methyl-3,7-bis(3-methylbut-2-en-1-yl)-8-(4-methylpent-3-en-1-yl)bicyclo[3.3.1]non-3-ene-2,9-dione]	–	–	–	not any observed decrease
